Values joined by “and” are separate entries in the source; they are usually repeats but may differ in a detail not shown here. Equal values may be shown once.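 1) Cells in 96-well plates. 2) Compound, 48 h, 5 concentrations. 3) Linear interpolation between surrounding doses. 4) Unreached endpoint = highest concentration. GI50: concentration for 50% inhibition of growth. TGI: total growth inhibition.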
Tests used:
Test in all cases: inhibition of tumour cell growth, NCI panel, 48 h
NCI/ADR-RES ovarian = tested on: NCI/ADR-RES ovarian
MDA-N = tested on: MDA-N
UO-31 renal = tested on: UO-31 renal
OVCAR-3 ovarian = tested on: OVCAR-3 ovarian
RPMI-8226 leukemia = tested on: RPMI-8226 leukemia
786-0 renal = tested on: 786-0 renal
SR leukemia = tested on: SR leukemia
CCRF-CEM leukemia = tested on: CCRF-CEM leukemia
M19-MEL melanoma = tested on: M19-MEL melanoma
KM20L2 colon = tested on: KM20L2 colon
XF 498 CNS = tested on: XF 498 CNS

SMILES | TGI (NCI/ADR-RES ovarian) | TGI (MDA-N) | TGI (UO-31 renal) | TGI (OVCAR-3 ovarian) | TGI (RPMI-8226 leukemia) | TGI (786-0 renal) | TGI (SR leukemia) | GI50 (CCRF-CEM leukemia) | GI50 (NCI/ADR-RES ovarian) | GI50 (MDA-N) | GI50 (UO-31 renal) | GI50 (OVCAR-3 ovarian) | GI50 (SR leukemia) | TGI (CCRF-CEM leukemia) | TGI (M19-MEL melanoma) | GI50 (KM20L2 colon) | TGI (KM20L2 colon) | GI50 (XF 498 CNS) | TGI (XF 498 CNS) | GI50 (RPMI-8226 leukemia)
O=C1CSC2(CCN(CCCN3c4ccccc4Sc4ccc(Cl)cc43)CC2)N1 | 20.2 µM | 23.6 µM | 19.5 µM | 22.1 µM | 18.3 µM | 23.2 µM |  |  |  |  |  |  |  |  |  |  |  |  |  | 
O=C(CSC1=NCCN1)c1ccccc1 | > 100 µM | > 100 µM | > 100 µM | > 100 µM | > 100 µM | > 100 µM | > 100 µM |  |  |  |  |  |  |  |  |  |  |  |  | 
COC1C(O)=C2C(=O)OC(C)(O)/C=C/C=C\C=C/C=C/C(c3ccccc3)NC(=O)/C=C/C=C/C=C/C=C/C2(C)C1O (configuration not stated) | 0.0535 µM and 0.206 µM | 0.141 µM and 0.17 µM | 0.0846 µM and 0.175 µM | 0.218 µM and 0.349 µM |  | 0.0234 µM and 0.0419 µM |  | < 0.001 µM | 0.0142 µM | 0.0329 µM | 0.0252 µM | 0.114 µM | 0.0053 µM and 0.0269 µM |  |  |  |  |  |  | 
CC1(C)N=C(N)N=C(N)N1c1cccc(CSc2ccccc2)c1 | > 100 µM | > 100 µM | > 100 µM | > 100 µM | > 100 µM | > 100 µM | 14.2 µM |  |  |  |  |  |  |  |  |  |  |  |  | 
COc1ccc2nc3c([N+](=O)[O-])ccc4c3c(c2c1)NCCN4C | 7.73 µM | 2.21 µM | 2.82 µM | 5.62 µM |  | 3.37 µM | > 100 µM |  |  |  |  |  |  | > 100 µM |  |  |  |  |  | 
Cc1c2cc[n+](C)cc2c(C)c2c1[nH]c1ccccc12 | > 100 µM | 19.6 µM | > 93.4 µM and 68.7 µM | 19.7 µM and 21.3 µM | 88.7 µM and 92 µM |  | > 100 µM |  | 48 µM and 15 µM |  |  |  |  | 41.9 µM and 35.3 µM | 3.34 µM and 2.32 µM | 4.95 µM and 2.34 µM | 33.4 µM and 19.9 µM | 0.856 µM | 5.09 µM and 2.45 µM | 
CC(NCCS(=O)(=O)O)C(=O)O (configuration not stated) | > 100 µM |  | > 100 µM | > 69.4 µM | > 100 µM |  |  |  |  |  |  |  |  | > 100 µM | > 100 µM |  | > 100 µM |  | > 100 µM | 
CCCCCCCCCC[C@@H](O)[C@@H]1CC[C@@H]([C@@H]2CC[C@@H]([C@@H](O)CCCCCCCCCCC(O)CC3=CC(C)OC3=O)O2)O1 (some centres not stated) | > 10 µM |  | > 10 µM |  | > 10 µM |  | 6.45 µM |  |  |  |  |  |  | > 10 µM |  |  |  |  |  | 
c1ccc(N=NNNc2ccc(-c3nc4ccccc4[nH]3)cc2)cc1 | 75.1 µM | > 100 µM | > 100 µM | 38.1 µM | 42.4 µM | > 100 µM | > 100 µM |  |  |  |  |  |  | 56.1 µM |  |  |  |  |  | 
CN(C)Cc1cc(C(=O)O)cc(CN(C)C)c1O | > 100 µM | > 100 µM | > 100 µM | > 100 µM | > 100 µM | > 100 µM | > 100 µM |  |  |  |  |  |  | > 100 µM |  |  |  |  |  | 
COc1ccc(-c2cn3ccnc3c(-c3ccc4ncn(C5CCCCC5)c4c3)n2)cc1 |  |  | > 100 µM | > 100 µM | > 100 µM |  | > 100 µM | 1.64 µM |  |  | 1.35 µM | 0.411 µM | 0.89 µM | > 100 µM |  |  |  |  |  | 2.96 µM
C=C[C@H]1CN2CC[C@H]1C[C@@H]2[C@@H](O)c1ccnc2ccccc12 | > 100 µM | > 100 µM | > 100 µM | > 100 µM | 90 µM | > 100 µM |  |  |  |  |  |  |  |  |  |  |  |  |  | 
O=C(O)C(Cc1cccs1)C(=O)O | > 100 µM | > 100 µM | > 100 µM | > 100 µM | > 100 µM | > 100 µM | > 100 µM |  |  |  |  |  |  | > 100 µM |  |  |  |  |  | 
Nc1nc(N)c2ncn(CC(CO)CC(c3ccccc3)P(=O)(O)O)c2n1 (configuration not stated) |  |  | > 100 µM | > 100 µM | > 100 µM |  | > 100 µM |  |  |  |  |  | > 100 µM and 35 µM | > 100 µM | > 100 µM |  | > 100 µM |  | > 100 µM | 
CN(C)c1ccc(C(c2ccc(N(C)C)cc2)c2ccc([N+](=O)[O-])cc2)cc1 | > 100 µM | > 100 µM | > 100 µM | > 100 µM | > 100 µM | > 100 µM | > 100 µM |  |  |  |  |  |  | > 100 µM |  |  |  |  |  | 
N#CC(c1ccccc1)c1cccc2ccccc12 (configuration not stated) | > 100 µM |  | > 100 µM | 86.6 µM | 67.9 µM | > 100 µM | 39.4 µM |  |  |  |  |  |  |  |  |  |  |  |  | 

From PubChem BioAssay (NCI)
